Source: patent publication US20220324835A1 (Nurix Therapeutics, Inc., priority 2018, published 2022)
Where two headings read alike, the source gives them in different places.

Experiments:
Type in all cases: cell-based
[1] = test system: primary human NK cells; assay: NK cell activation assessed by cytokine secretion (coculture with K562 NucRed target cells); conditions: K562, NK cells cocultured with K562 NucRed, 1:1 E/T; for fold induction at 0.625 µM: 0.625 μM compound; for fold induction at 2.5 µM: 2.5 μM compound; for fold induction at 10 µM: 10 μM compound
Procedure, shortened: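 Read-out is cytokine secretion (IFNγ, TNFα, MIP1β; ELISA or Luminex) as fold over coculture without inhibitor, >2.0-fold taken as positive. Donor NK cells, IL-2 primed (60 ng/mL) overnight, received compound 1 h ahead (e.g. 0.1–10 μM, DMSO <0.1%) and were mixed 6 h with K562 NucRed targets at e.g. 5:1, 1:1, 1:5.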

[2] = test system: primary human total T-cells; assay: T-cell activation assessed by CD69 expression
Procedure, shortened: (§1)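 Primary human T-cells (>95% CD3+, negative selection from PBMC) were pre-incubated with inhibitor (e.g. 10, 1.11, 0.123 μM; DMSO <0.1%) for 1 h at 37 °C. They were then stimulated 48 h with plate-bound OKT3 (coated at 10 μg/mL), alone or with 5 μg/mL soluble anti-CD28. Results are fold change over uninhibited, identically stimulated cells.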

[3] = test system: primary human total T-cells; assay: T-cell activation assessed by cytokine secretion (GM-CSF, IFNγ, TNFα)
Procedure, shortened: as §1

[4] = read-out: IFNγ secretion, fold change over baseline
[5] = read-out: TNFα secretion, fold change over baseline
[6] = CD3/CD28 stimulation, CD4 T-cells, read-out: % CD69+ (CD4)
[7] = CD3/CD28 stimulation, CD8 T-cells, read-out: % CD69+ (CD8)
[8] = CD3 alone stimulation, CD4 T-cells, read-out: % CD69+ (CD4)
[9] = CD3 alone stimulation, CD8 T-cells, read-out: % CD69+ (CD8)
[10] = CD3/CD28 stimulation, read-out: GM-CSF secretion
[11] = CD3/CD28 stimulation, read-out: IFNγ secretion
[12] = CD3/CD28 stimulation, read-out: TNFα secretion
[13] = CD3 alone stimulation, read-out: GM-CSF secretion
[14] = CD3 alone stimulation, read-out: IFNγ secretion
[15] = CD3 alone stimulation, read-out: TNFα secretion

SMILES: Cn1cnnc1[C@@H]1C[C@@H]1c1cccc(N2Cc3c(cccc3C(F)(F)F)C2=O)c1 [Compound 282, 2-(3-((1S,2R)-2-(4-methyl-4H-1,2,4-triazol-3-yl)cyclopropyl)phenyl)-4-(trifluoromethyl)isoindolin-1-one]
- fold induction at 0.625 µM [1, 4]: 1.01 to 2
- fold induction at 0.625 µM [1, 5]: 1.01 to 2
- fold induction at 2.5 µM [1, 4]: 1.01 to 2
- fold induction at 2.5 µM [1, 5]: 1.01 to 2
- fold induction at 10 µM [1, 4]: 2.01 to 5
- fold induction at 10 µM [1, 5]: 2.01 to 5
- fold induction at 1.11 µM [2, 6]: ≤ 1.2
- fold induction at 10 µM [2, 6]: 1.2 to 1.4
- fold induction at 1.11 µM [2, 7]: ≤ 1.2
- fold induction at 10 µM [2, 7]: 1.2 to 1.4
- fold induction at 1.11 µM [2, 8]: ≤ 1.2
- fold induction at 10 µM [2, 8]: 1.2 to 1.4
- fold induction at 1.11 µM [2, 9]: ≤ 1.2
- fold induction at 10 µM [2, 9]: ≤ 1.2
- fold induction at 1.11 µM [3, 10]: 1.51 to 2
- fold induction at 1.11 µM [3, 11]: < 2
- fold induction at 1.11 µM [3, 12]: ≤ 1.5
- fold induction at 10 µM [3, 10]: 2.01 to 4
- fold induction at 10 µM [3, 11]: 2.01 to 3
- fold induction at 10 µM [3, 12]: 2.01 to 4
- fold induction at 1.11 µM [3, 13]: ≤ 1.5
- fold induction at 1.11 µM [3, 14]: < 2
- fold induction at 1.11 µM [3, 15]: ≤ 1.5
- fold induction at 10 µM [3, 13]: 2.01 to 4
- fold induction at 10 µM [3, 14]: 2.01 to 3
- fold induction at 10 µM [3, 15]: ≤ 1.5

SMILES: C[C@H](Cc1nncn1C)c1cccc(NC(=O)c2nc(C(F)(F)F)c[nH]2)c1 [Compound 326, (R)-N-(3-(1-(4-methyl-4H-1,2,4-triazol-3-yl)propan-2-yl)phenyl)-4-(trifluoromethyl)-1H-imidazole-2-carboxamide]
- fold induction at 0.625 µM [1, 4]: 1.01 to 2
- fold induction at 0.625 µM [1, 5]: 1.01 to 2
- fold induction at 2.5 µM [1, 4]: 2.01 to 5
- fold induction at 2.5 µM [1, 5]: 2.01 to 5
- fold induction at 10 µM [1, 4]: 2.01 to 5
- fold induction at 10 µM [1, 5]: 2.01 to 5
- fold induction at 1.11 µM [2, 6]: 1.2 to 1.4
- fold induction at 10 µM [2, 6]: 1.4 to 1.6
- fold induction at 1.11 µM [2, 7]: ≤ 1.2
- fold induction at 10 µM [2, 7]: 1.2 to 1.4
- fold induction at 1.11 µM [2, 8]: 1.2 to 1.4
- fold induction at 10 µM [2, 8]: 1.4 to 1.6
- fold induction at 1.11 µM [2, 9]: ≤ 1.2
- fold induction at 10 µM [2, 9]: 1.2 to 1.4
- fold induction at 1.11 µM [3, 10]: 1.51 to 2
- fold induction at 1.11 µM [3, 11]: < 2
- fold induction at 1.11 µM [3, 12]: ≤ 1.5
- fold induction at 10 µM [3, 10]: 2.01 to 4
- fold induction at 10 µM [3, 11]: 2.01 to 3
- fold induction at 10 µM [3, 12]: 2.01 to 4
- fold induction at 1.11 µM [3, 13]: 1.51 to 2
- fold induction at 1.11 µM [3, 14]: < 2
- fold induction at 1.11 µM [3, 15]: ≤ 1.5
- fold induction at 10 µM [3, 13]: 2.01 to 4
- fold induction at 10 µM [3, 14]: 2.01 to 3
- fold induction at 10 µM [3, 15]: 1.51 to 2
